From patent publication US20260042802A1, “POLYPEPTIDE AND USE THEREOF” (priority 2024, published 2026) come the findings set out here.

The test system of this test is mouse acetate acid writhing model. Put plainly: Mouse acetate acid writhing model. In kind it is in vivo, C57BL/6 mice. The text has this: Seventy SPF-grade healthy C57BL/6 mice, half male and half female, weighing 22-25 g and 8-10 weeks old, are randomly selected. Seventy C57BL/6 mice are weighed and numbered in ascending order of body weight (No. S1-S70). The mice are randomly divided into seven groups in terms of the randomized numerical table method, which are the saline group and the experimental groups, among which the experimental groups include the PPN-01 group, the PPN-04 group, the PPN-06 group, the PPN-11 group, the PPN-12 group, and the PPN-16 group. The dosing concentration (i.e., the concentration of added polypeptides PPN-01, PPN-04, PPN-06, PPN-11, PPN-12, and PPN-16) in each group is 10 mg/kg, with 10 mice in each group.
Saline Group: 10 healthy mice are routinely reared for one week; the saline is intraperitoneally injected once daily at a concentration of 10 ml/kg for 7 consecutive days; 15 min after the last injection is finished, 0.7% glacial acetic acid (10 ml/kg) is intraperitoneally injected; and each mouse is observed for their writhing behaviors.
Experimental Group: 10 healthy mice are routinely reared for one week; 10 ml/kg of different polypeptides are injected intraperitoneally at a concentration of 0.1 mL/10 g once daily for 7 consecutive days; 15 min after the last injection is finished, 0.7% glacial acetic acid (10 ml/kg) is intraperitoneally injected; and each mouse is observed for their behaviors in writhing.
During the above experiments, the time of first writhing (writhing latency) and the number of writhing in each mouse within 15 min are recorded immediately after the injection of glacial acetic acid solution in each group of mice. When behavioral responses such as inward concavity of the abdomen, extension of the torso and hind limbs, and elevation of the buttocks occur, it is considered to be a complete writhing response, and the results are shown in Table 3 and FIG. 6.
Forty SPF-grade healthy C57BL/6 mice, half male and half female, weighing 22-25 g and 8-10 weeks old, are randomly selected. Forty C57BL/6 mice are weighed and numbered in ascending order of body weight (No. 1 to No. 40). The mice are randomly divided into five groups according to the randomized numerical table method, namely, the saline group, the low-concentration group (2.5 mg/kg), the medium-concentration group (10 mg/kg), the high-concentration group (40 mg/kg), and the diclofenac sodium group (30 mg/kg), with eight mice in each group.
Saline Group: 8 healthy mice are routinely reared for one week; the saline is intraperitoneally injected once daily at a concentration of 10 ml/kg for 7 consecutive days; 15 min after the last injection is finished, 0.7% glacial acetic acid (10 ml/kg) is intraperitoneally injected; and each mouse is observed for their behaviors in writhing. […]
Background: An intraperitoneal irritant provokes the stretching counted in writhing tests.

The mark [1] stands for this setting: 10 mg/kg i.p. once daily for 7 days, 0.7% glacial acetic acid 15 min after last injection, 10 mice.

Where a SMILES comes first, the peptide text is derived from it. Bridges are numbered along the chain shown (N, C = ends).

`CSCC[C@@H]1NC(=O)CNC(=O)[C@H](CCC(=O)O)NC(=O)[C@@H]2CSSC[C@H](NC(=O)[C@H](Cc3ccc(O)cc3)NC(C)=O)C(=O)N[C@@H](CCC(N)=O)C(=O)N[C@@H](CCCCN)C(=O)N[C@@H](Cc3ccccc3)C(=O)N[C@@H](CC(C)C)C(=O)N[C@@H](C)C(=O)N3CCC[C@H]3C(=O)N[C@H]3CSSC[C@H](NC(=O)[C@H](CCC(=O)O)NC1=O)C(=O)N[C@@H](CCCCN)C(=O)N[C@@H](CC(C)C)C(=O)N[C@@H](Cc1c[nH]c4ccccc14)C(=O)N[C@H](C(=O)N[C@@H](CCCCN)C(=O)N[C@@H](CCCCN)C(=O)N[C@@H](CCCCN)C(=O)N[C@@H](CC(C)C)C(=O)N[C@@H](Cc1c[nH]c4ccccc14)C(N)=O)CSSC[C@H](NC(=O)[C@H](CCCCN)NC(=O)[C@H](CCCNC(=N)N)NC(=O)[C@H](CCC(=O)O)NC(=O)[C@H](CO)NC(=O)[C@H](CC(=O)O)NC3=O)C(=O)N2` [PPN-01] (Ac-YCQKFLAPCDSERKCCEGMECKLWCKKKLW-NH2; disulfide 2-16, 9-21, 15-25): under setting [1], the Number of writhing came out at 14.4 times/15 min and the “Time of first writhing” value is given as 4.15 min. For the same compound, under “10 mg/kg i.p., 7 days, compared with saline group”, the “analgesic effect on the mouse acetate acid writhing model” value is “certain analgesic effect”.
